The values that follow come from ChEMBL document CHEMBL3399973, “Synthesis and biological evaluation of isoxazoline derivatives as potent M₁ muscarinic acetylcholine receptor agonists” (Bioorg Med Chem Lett, 2015).

One may read the inhibition as the relative decrease from the control value, in per cent. As a reminder, the EC50 is the concentration needed to bring the measured effect to its halfway point.

Test [1] concerns the target T1, Muscarinic acetylcholine receptor M1 (Homo sapiens) (UniProt P11229).
T1 sequence (whole entry): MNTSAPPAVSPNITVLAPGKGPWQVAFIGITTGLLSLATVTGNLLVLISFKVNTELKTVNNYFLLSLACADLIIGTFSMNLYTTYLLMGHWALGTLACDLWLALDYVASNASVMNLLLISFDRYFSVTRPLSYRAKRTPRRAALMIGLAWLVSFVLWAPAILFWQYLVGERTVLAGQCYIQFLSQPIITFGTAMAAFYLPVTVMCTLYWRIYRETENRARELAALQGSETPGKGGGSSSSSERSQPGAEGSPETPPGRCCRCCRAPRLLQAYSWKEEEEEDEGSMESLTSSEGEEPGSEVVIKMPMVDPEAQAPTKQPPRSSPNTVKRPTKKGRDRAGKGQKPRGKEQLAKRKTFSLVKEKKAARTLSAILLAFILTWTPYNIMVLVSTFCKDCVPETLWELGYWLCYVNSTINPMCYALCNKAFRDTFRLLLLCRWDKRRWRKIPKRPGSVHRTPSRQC
Conditions: HEK293, at 10 µM.

Test [2] has as its target T1, Muscarinic acetylcholine receptor M1 (Homo sapiens). The note with it: HEK293, at 10 µM. This is another data set of the same source.
In test [3] the target is T2, Muscarinic acetylcholine receptor M1 (Homo sapiens, UniProt P11229).
T2 sequence (P11229 whole entry): T1 sequence (whole entry)

Test [4] relates to SH-SY5Y. As to the kind of experiment: Induction of sAPPalpha release in human SH-SY5Y cells after 1 hr by immunoblotting analysis. It is filed as functional, cell-based. (In western blotting, separated proteins are transferred to a membrane and probed.)
Test [5] deals with T1, Muscarinic acetylcholine receptor M1 (Homo sapiens). Nature of the test: Agonist activity at human m1 muscarinic acetylcholine receptor expressed in HEK293 cells assessed as activation of ERK1/2 phosphorylation after 2 mins by Western blotting analysis. It is filed as cell-based.
Test [6] has the same target. As to the kind of experiment: Agonist activity at human m1 muscarinic acetylcholine receptor expressed in HEK293 cells assessed as relative ratio of phosphorylated ERK1/2 to ERK1/2 at 100 uM after 2 mins by Western blotting analysis relative to 100 uM acetylcholine response. The class given is cell-based.
Test [7] has as its system SH-SY5Y. Nature of the test: Induction of sAPPalpha release in human SH-SY5Y cells assessed as fold changed at 0.01 uM after 1 hr by immunoblotting analysis relative to 100 uM acetylcholine response. The class given is functional.
Test [8] relates to SH-SY5Y. Nature of the test: Induction of sAPPalpha release in human SH-SY5Y cells assessed as fold changed at 0.1 uM after 1 hr by immunoblotting analysis relative to 100 uM acetylcholine response. The class given is functional.
Test [9] deals with T1, Muscarinic acetylcholine receptor M1 (Homo sapiens). Nature of the test: Agonist activity at human m1 muscarinic acetylcholine receptor expressed in HEK293 cells assessed as relative ratio of phosphorylated ERK1/2 to ERK1/2 at 10 uM after 2 mins by Western blotting analysis relative to 100 uM acetylcholine response. It is filed as cell-based.
Test [10] has the same target. Nature of the test: Agonist activity at human m1 muscarinic acetylcholine receptor expressed in HEK293 cells assessed as relative ratio of phosphorylated ERK1/2 to ERK1/2 at 1 uM after 2 mins by Western blotting analysis relative to 100 uM acetylcholine response. It is filed as cell-based.
The test system of test [11] is SH-SY5Y. As to the kind of experiment: Induction of sAPPalpha release in human SH-SY5Y cells assessed as fold changed at 1 uM after 1 hr by immunoblotting analysis relative to 100 uM acetylcholine response. The class given is functional.

Compound `CN1CCC=C(C2=NOC(CO)C2)C1` (stereo not drawn) had an Efficacy in test [1] of 1.7%. The compound also yielded an inhibition in test [2] of 12.3%.
In [1], `CCOC1CC(C2=CCCN(C)C2)=NO1` (stereo not drawn) returned an Efficacy of 2.4%. Besides, in test [2], the inhibition turned out to be 34%.
Compound `CN1CCC=C(C2=NOC(C#N)C2)C1` (stereo not drawn) showed an Efficacy in test [1] of 58.8%. The half-maximal effective concentration (EC50) in test [3] turned out to be 7540 nM.
As to `CN1CCCC(C2=NOC(N3CCCC3=O)C2)C1` (stereo not drawn), the Efficacy in test [1] was found to be 2.2%. For the same compound, in test [2], the inhibition was found to be 20.7%.
For the compound `CN1CCC=C(c2ccon2)C1`, the Efficacy in test [1] was determined as 95.8%. The EC50 in test [3] was found to be 780 nM.
On the same counts, the results for `CN1CCC=C(C2=NOC(O)C2)C1` (stereo not drawn) are 36.9% and 17300 nM.
Take `CO/N=C/C1=CCCN(C)C1` [MILAMELINE]: the Efficacy in test [1] was 83%. In [3], this compound registered an EC50 of 21 nM.
As to `CN1CCC=C(C2=NOC(Sc3ccccc3)C2)C1` (stereo not drawn), in test [1], the Efficacy was 2.3%. This compound also had an inhibition in test [2] of 49.4%.
As to `CSCC1CC(C2=CCCN(C)C2)=NO1` (stereo not drawn), in [1], the Efficacy came to 61.3%. This compound had an EC50 in test [3] of 5680 nM.
Consider `O=C1CCCN1CC#CCN1CCCC1` [OXOTREMORINE], for which the Efficacy in [1] came out at 108%. The EC50 in test [3] was 1.6 nM.
In test [1], `O=C1CCCN1C1CC(CCN2CCCCC2)=NO1` (stereo not drawn) returned an Efficacy of 2.2%. This compound came in with an inhibition in test [2] of 20.7%.
Regarding `O=C1CCCN1C1CC(CN2CCCCC2)=NO1` (stereo not drawn), the Efficacy in test [1] amounted to 2.2%. Moreover, the inhibition in [2] is 20.7%.
As for `O=C1CCCN1C1CC(CN2CCCC2)=NO1` (stereo not drawn), in [1], the Efficacy amounted to 2.2%. Moreover, in [2], the inhibition worked out at 20.7%.
Compound `CN1CCC=C(C2=NOC(N3CCCC3=O)C2)C1` (stereo not drawn) gave an Efficacy in test [1] of 99.5%. Besides, the Activity entry (in the test on SH-SY5Y [4]; in test [5]) was “Dose-dependent effect” throughout. Besides, the EC50 in test [3] amounted to 31 nM. For the same compound, the Ratio was 1.8 in [6], 1.7 in test [9] and 1.3 in test [10]. In addition, the “fold change (FC)” value in the test on SH-SY5Y [7] is reported as 1.5; with SH-SY5Y [8] it was 2.5; in the test with SH-SY5Y [11], 3.4.
Compound `O=C1CCCN1C1CC(CCN2CCCC2)=NO1` (stereo not drawn) yielded an Efficacy in test [1] of 2.2%. This compound also registered an inhibition in test [2] of 20.7%.
